Measurements from PMC5218480 (PLoS ONE, 2017).

Tested on: MV-4-11 cells
Assay: Gene expression microarray analysis (Affymetrix PrimeView) and GSEA
Assay type: cell-based, human
Set-up: RFU PODN (11730768_x_at) / Fold change /veh PODN (11730768_x_at) / RFU LINC00158 (11744669_a_at) / Fold change /veh LINC00158 (11744669_a_at) / RFU DUSP10 (11751237_a_at) / Fold change /veh DUSP10 (11751237_a_at) / RFU ID3 (11757404_x_at) / Fold change /veh ID3 (11757404_x_at) / RFU PLEKHG5 (11737974_s_at) / Fold change /veh PLEKHG5 (11737974_s_at) / RFU LRRC4B (11730491_at) / Fold change /veh LRRC4B (11730491_at) / RFU GIMAP4 (11747438_a_at) / Fold change /veh GIMAP4 (11747438_a_at) / RFU KRT8 (11758183_x_at) / Fold change /veh KRT8 (11758183_x_at) / RFU CNN1 (11734310_a_at) / Fold change /veh CNN1 (11734310_a_at) / RFU VPS37D (11726825_at) / Fold change /veh VPS37D (11726825_at) / RFU C10orf10 (11716522_x_at) / Fold change /veh C10orf10 (11716522_x_at) / RFU KIR2DL2 /// KIR2DL4 /// KIR2DL5A /// KIR2DL5B /// KIR2DS1 /// KIR2DS2 /// KIR2DS3 /// KIR2DS4 /// KIR3DL3 /// KIR3DL3 /// KIR3DS1 (11738374_at) / Fold change /veh KIR2DL2 /// KIR2DL4 /// KIR2DL5A /// KIR2DL5B /// KIR2DS1 /// KIR2DS2 /// KIR2DS3 /// KIR2DS4 /// KIR3DL3 /// KIR3DL3 /// KIR3DS1 (11738374_at) / RFU C1QL1 (11718748_at) / Fold change /veh C1QL1 (11718748_at) / RFU TMPRSS4 (11747572_a_at) / Fold change /veh TMPRSS4 (11747572_a_at) / RFU HAMP (11756126_x_at) / Fold change /veh HAMP (11756126_x_at) / RFU RNFT2 (11725882_a_at) / Fold change /veh RNFT2 (11725882_a_at) / RFU NR4A2 (11747474_a_at) / Fold change /veh NR4A2 (11747474_a_at) / RFU ABCC12 (11746883_a_at) / Fold change /veh ABCC12 (11746883_a_at) / RFU TMEM136 (11760407_x_at) / Fold change /veh TMEM136 (11760407_x_at) / RFU CLDN22 /// WWC2 (11732394_at) / Fold change /veh CLDN22 /// WWC2 (11732394_at) / RFU HLA-DPB1 (11760878_x_at) / Fold change /veh HLA-DPB1 (11760878_x_at) / RFU SPINT1 (11716480_a_at) / Fold change /veh SPINT1 (11716480_a_at) / RFU GAP43 (11754022_s_at) / Fold change /veh GAP43 (11754022_s_at) / RFU A4GNT (11735810_at) / Fold change /veh A4GNT (11735810_at) / RFU PRB3 (11715151_x_at) / Fold change /veh PRB3 (11715151_x_at) / RFU TUBB4B (11761932_at) / Fold change /veh TUBB4B (11761932_at) / RFU CAPN14 (11732068_a_at) / Fold change /veh CAPN14 (11732068_a_at) / RFU TMCC2 (11721928_a_at) / Fold change /veh TMCC2 (11721928_a_at) / RFU IRGQ (11745062_a_at) / Fold change /veh IRGQ (11745062_a_at) / RFU FAM174B (11720279_a_at) / Fold change /veh FAM174B (11720279_a_at) / RFU TMPRSS4 (11748680_a_at) / Fold change /veh TMPRSS4 (11748680_a_at) / RFU FAM212B (11763350_a_at) / Fold change /veh FAM212B (11763350_a_at) / RFU PLEKHG5 (11743358_a_at) / Fold change /veh PLEKHG5 (11743358_a_at) / RFU ZSCAN30 (11745921_a_at) / Fold change /veh ZSCAN30 (11745921_a_at) / RFU CMKLR1 (11741424_a_at) / Fold change /veh CMKLR1 (11741424_a_at) / RFU LOC101060620 /// MAPK8IP1 (11723275_at) / Fold change /veh LOC101060620 /// MAPK8IP1 (11723275_at) / RFU SPTSSB (11747773_x_at) / Fold change /veh SPTSSB (11747773_x_at) / RFU PRSS12 (11739890_at) / Fold change /veh PRSS12 (11739890_at) / RFU BIN1 (11741810_x_at) / Fold change /veh BIN1 (11741810_x_at) / RFU WNT11 (11732464_a_at) / Fold change /veh WNT11 (11732464_a_at) / RFU C10orf10 (11716521_a_at) / Fold change /veh C10orf10 (11716521_a_at) / RFU C5orf56 (11738089_at) / Fold change /veh C5orf56 (11738089_at) / RFU CYB561 (11721691_x_at) / Fold change /veh CYB561 (11721691_x_at) / RFU ANKRD19P (11752326_a_at) / Fold change /veh ANKRD19P (11752326_a_at) / RFU OR2T12 /// OR2T33 /// OR2T8 (11738714_s_at) / Fold change /veh OR2T12 /// OR2T33 /// OR2T8 (11738714_s_at) / RFU VCAN (11748164_a_at) / Fold change /veh VCAN (11748164_a_at) / RFU JSRP1 (11732532_at) / Fold change /veh JSRP1 (11732532_at) / RFU KRTAP10-11 (11738290_x_at) / Fold change /veh KRTAP10-11 (11738290_x_at) / RFU MYO3A (11730013_a_at) / Fold change /veh MYO3A (11730013_a_at) / RFU EBF3 (11725865_a_at) / Fold change /veh EBF3 (11725865_a_at) / RFU CAMK2N1 (11719241_x_at) / Fold change /veh CAMK2N1 (11719241_x_at) / RFU C5orf56 (11738088_a_at) / Fold change /veh C5orf56 (11738088_a_at) / RFU OLFML3 (11715873_a_at) / Fold change /veh OLFML3 (11715873_a_at) / RFU LOC100653217 /// NTM (11731650_a_at) / Fold change /veh LOC100653217 /// NTM (11731650_a_at) / RFU MAPK11 (11762145_a_at) / Fold change /veh MAPK11 (11762145_a_at) / RFU FIZ1 (11724087_x_at) / Fold change /veh FIZ1 (11724087_x_at) / RFU OASL (11726364_x_at) / Fold change /veh OASL (11726364_x_at) / RFU SOX15 (11748057_x_at) / Fold change /veh SOX15 (11748057_x_at) / RFU CD79A (11719716_a_at) / Fold change /veh CD79A (11719716_a_at) / RFU HIST1H1D (11736915_at) / Fold change /veh HIST1H1D (11736915_at) / RFU CASKIN2 (11723855_a_at) / Fold change /veh CASKIN2 (11723855_a_at) / RFU LOC730098 (11760151_x_at) / Fold change /veh LOC730098 (11760151_x_at) / RFU OR4N2 (11742367_at) / Fold change /veh OR4N2 (11742367_at) / RFU PRRT2 (11749266_a_at) / Fold change /veh PRRT2 (11749266_a_at) / RFU SNX32 (11753110_a_at) / Fold change /veh SNX32 (11753110_a_at) / RFU CDHR5 (11726645_a_at) / Fold change /veh CDHR5 (11726645_a_at) / RFU RCAN1 (11760418_a_at) / Fold change /veh RCAN1 (11760418_a_at) / RFU FAM167A (11723789_a_at) / Fold change /veh FAM167A (11723789_a_at) / RFU FAM26E (11764081_at) / Fold change /veh FAM26E (11764081_at) / RFU ISYNA1 (11749810_s_at) / Fold change /veh ISYNA1 (11749810_s_at) / RFU ACY1 (11761880_at) / Fold change /veh ACY1 (11761880_at) / RFU 11764098_at / Fold change /veh 11764098_at / RFU SAMD14 (11745864_x_at) / Fold change /veh SAMD14 (11745864_x_at) / RFU NPB (11741838_a_at) / Fold change /veh NPB (11741838_a_at) / RFU TMPRSS6 (11731388_a_at) / Fold change /veh TMPRSS6 (11731388_a_at) / RFU KRTAP10-2 (11738614_at) / Fold change /veh KRTAP10-2 (11738614_at) / RFU ARHGAP8 /// PRR5-ARHGAP8 (11727945_x_at) / Fold change /veh ARHGAP8 /// PRR5-ARHGAP8 (11727945_x_at) / RFU KRTAP5-7 /// NADSYN1 (11734609_at) / Fold change /veh KRTAP5-7 /// NADSYN1 (11734609_at) / RFU RASL12 (11751679_a_at) / Fold change /veh RASL12 (11751679_a_at) / RFU CDKN2B (11736163_a_at) / Fold change /veh CDKN2B (11736163_a_at) / RFU PRF1 (11729649_at) / Fold change /veh PRF1 (11729649_at) / RFU, ZNF638 /// ZNF638-IT1 / Fold change vs veh, ZNF638 /// ZNF638-IT1 / RFU, PANK3 / Fold change vs veh, PANK3 / RFU, SH3YL1 / Fold change vs veh, SH3YL1 / RFU, ZEB2 / Fold change vs veh, ZEB2 / RFU, NRIP1 / Fold change vs veh, NRIP1 / RFU, PTTG1IP / Fold change vs veh, PTTG1IP / RFU, CAPN2 / Fold change vs veh, CAPN2 / RFU, MED14 / Fold change vs veh, MED14 / RFU, SNORA58 / Fold change vs veh, SNORA58 / RFU, C1orf63 / Fold change vs veh, C1orf63 / RFU, LRRFIP1 / Fold change vs veh, LRRFIP1 / RFU, NDUFAF7 / Fold change vs veh, NDUFAF7 / RFU, SLC12A2 / Fold change vs veh, SLC12A2 / RFU, IBTK / Fold change vs veh, IBTK / RFU, ESF1 / Fold change vs veh, ESF1 / Fold change vs veh, TMEM50B / RFU, TAOK1 / Fold change vs veh, TAOK1 / RFU, ACBD3 / Fold change vs veh, ACBD3 / RFU, TMA16 / Fold change vs veh, TMA16 / RFU, RWDD3 / Fold change vs veh, RWDD3 / RFU, BCAT1 / Fold change vs veh, BCAT1 / RFU, EDEM3 / Fold change vs veh, EDEM3 / RFU, TMEM33 / Fold change vs veh, TMEM33 / RFU, WDR75 / Fold change vs veh, WDR75 / RFU, AHCTF1 / Fold change vs veh, AHCTF1 / RFU, TFRC / Fold change vs veh, TFRC / RFU, ZDHHC17 / Fold change vs veh, ZDHHC17 / RFU, NOM1 / Fold change vs veh, NOM1 / RFU, ARL8B / Fold change vs veh, ARL8B / RFU, ZBTB11 / Fold change vs veh, ZBTB11 / RFU, TAMM41 / Fold change vs veh, TAMM41 / RFU, KIAA1704 /// LOC100996395 / Fold change vs veh, KIAA1704 /// LOC100996395 / RFU, ING1 / Fold change vs veh, ING1 / RFU, TRMT61B / Fold change vs veh, TRMT61B / RFU, FUBP3 / Fold change vs veh, FUBP3 / RFU, TP53 / Fold change vs veh, TP53 / RFU, TNKS2 / Fold change vs veh, TNKS2 / RFU, ZFP14 / Fold change vs veh, ZFP14 / RFU, ACTR2 / Fold change vs veh, ACTR2 / RFU, PPP3R1 / Fold change vs veh, PPP3R1 / RFU, PIK3R1 / Fold change vs veh, PIK3R1 / RFU, HNRNPA1 / Fold change vs veh, HNRNPA1 / RFU, RNF170 / Fold change vs veh, RNF170 / RFU, ZNF28 / Fold change vs veh, ZNF28 / RFU, RNGTT / Fold change vs veh, RNGTT / RFU, OGT / Fold change vs veh, OGT / RFU, BRD1 / Fold change vs veh, BRD1 / RFU, MARS / Fold change vs veh, MARS / RFU, ZNF655 / Fold change vs veh, ZNF655 / RFU, FAHD1 / Fold change vs veh, FAHD1 / RFU, BDP1 / Fold change vs veh, BDP1 / RFU, LRRCC1 / Fold change vs veh, LRRCC1 / RFU, ARID1A / Fold change vs veh, ARID1A / RFU, ZNF146 / Fold change vs veh, ZNF146 / RFU, ZNF330 / Fold change vs veh, ZNF330 / RFU, GPN3 / Fold change vs veh, GPN3 / RFU, C9orf123 / Fold change vs veh, C9orf123 / RFU, N4BP2L2 / Fold change vs veh, N4BP2L2 / RFU, ARFIP1 / Fold change vs veh, ARFIP1 / RFU, FAM179B / Fold change vs veh, FAM179B / RFU, BCL10 / Fold change vs veh, BCL10 / RFU, UHRF1BP1L / Fold change vs veh, UHRF1BP1L / RFU, BET1 / Fold change vs veh, BET1 / RFU, CNOT2 / Fold change vs veh, CNOT2 / RFU, ZNF268 / Fold change vs veh, ZNF268 / Fold change vs veh, ZNF507 / RFU, DGCR2 / Fold change vs veh, DGCR2 / RFU, WDSUB1 / Fold change vs veh, WDSUB1 / Fold change vs veh, HSP90B1 /// MIR3652 / RFU, ADSS / Fold change vs veh, ADSS / RFU, GK / Fold change vs veh, GK / RFU, ZNF148 / Fold change vs veh, ZNF148 / RFU, TAF9 / Fold change vs veh, TAF9 / RFU, SLC1A5 / Fold change vs veh, SLC1A5 / RFU, SLMO2 / Fold change vs veh, SLMO2 / RFU, ABCC4 / Fold change vs veh, ABCC4 / RFU, LOC101060439 /// RAP1B / Fold change vs veh, LOC101060439 /// RAP1B / RFU, RFX7 / Fold change vs veh, RFX7 / RFU, GTPBP10 / Fold change vs veh, GTPBP10 / RFU, CNEP1R1 / Fold change vs veh, CNEP1R1 / RFU, BIVM-ERCC5 /// ERCC5 / Fold change vs veh, BIVM-ERCC5 /// ERCC5 / RFU, ILF3 / Fold change vs veh, ILF3 / RFU 11762660_at / Fold change /veh 11762660_at / RFU VCAN (11757783_s_at) / Fold change /veh VCAN (11757783_s_at) / RFU DDX43 (11728927_at) / Fold change /veh DDX43 (11728927_at) / RFU KRT8 (11758188_x_at) / Fold change /veh KRT8 (11758188_x_at) / RFU NKD1 (11759106_at) / Fold change /veh NKD1 (11759106_at) / RFU SRD5A1 (11742802_a_at) / Fold change /veh SRD5A1 (11742802_a_at) / RFU TPSAB1 /// TPSB2 (11721975_s_at) / Fold change /veh TPSAB1 /// TPSB2 (11721975_s_at) / RFU GSTM3 (11746129_a_at) / Fold change /veh GSTM3 (11746129_a_at) / RFU IL23R (11737362_x_at) / Fold change /veh IL23R (11737362_x_at) / RFU TMEM51 (11727254_a_at) / Fold change /veh TMEM51 (11727254_a_at) / RFU PIWIL2 (11732686_x_at) / Fold change /veh PIWIL2 (11732686_x_at) / RFU ORM1 (11744905_x_at) / Fold change /veh ORM1 (11744905_x_at) / RFU CCDC152 (11743942_at) / Fold change /veh CCDC152 (11743942_at) / RFU ECM1 (11717891_a_at) / Fold change /veh ECM1 (11717891_a_at) / RFU IL23R (11748794_a_at) / Fold change /veh IL23R (11748794_a_at) / RFU TNFAIP8L3 (11732012_x_at) / Fold change /veh TNFAIP8L3 (11732012_x_at) / RFU MBOAT4 (11741988_at) / Fold change /veh MBOAT4 (11741988_at) / RFU 11764193_at / Fold change /veh 11764193_at / RFU TMEM53 (11763286_at) / Fold change /veh TMEM53 (11763286_at) / RFU MAGEB2 (11727129_at) / Fold change /veh MAGEB2 (11727129_at) / RFU TMEM200A (11744735_a_at) / Fold change /veh TMEM200A (11744735_a_at) / RFU CCDC152 (11751479_a_at) / Fold change /veh CCDC152 (11751479_a_at) / RFU FAM211A (11726209_a_at) / Fold change /veh FAM211A (11726209_a_at) / RFU RGS16 (11746705_a_at) / Fold change /veh RGS16 (11746705_a_at) / RFU VCAN (11755009_s_at) / Fold change /veh VCAN (11755009_s_at) / RFU RHOB (11743442_s_at) / Fold change /veh RHOB (11743442_s_at) / RFU RGS16 (11720943_a_at) / Fold change /veh RGS16 (11720943_a_at) / RFU RGS16 (11720944_at) / Fold change /veh RGS16 (11720944_at) / RFU, VPS4B / Fold change vs veh, VPS4B / RFU, CREB1 / Fold change vs veh, CREB1 / RFU, DNAJC13 / Fold change vs veh, DNAJC13 / RFU, GNAQ / Fold change vs veh, GNAQ / RFU, CDK5R1 / Fold change vs veh, CDK5R1 / RFU, ZRANB3 / Fold change vs veh, ZRANB3 / RFU, CUL4A / Fold change vs veh, CUL4A / RFU, CCNY / Fold change vs veh, CCNY / RFU, UFL1 / Fold change vs veh, UFL1 / RFU, COG3 / Fold change vs veh, COG3 / RFU, DIAPH2 / Fold change vs veh, DIAPH2 / RFU, SKA2 / Fold change vs veh, SKA2 / RFU, AFF3 / Fold change vs veh, AFF3 / RFU, LMF1 / Fold change vs veh, LMF1 / RFU, IPO11 / Fold change vs veh, IPO11 / RFU, DFFB / Fold change vs veh, DFFB / RFU, FOXP1 / Fold change vs veh, FOXP1 / RFU, CARD8 / Fold change vs veh, CARD8 / RFU, STRN3 / Fold change vs veh, STRN3 / RFU, ADK / Fold change vs veh, ADK / RFU, RASSF2 / Fold change vs veh, RASSF2 / RFU, WIPF1 / Fold change vs veh, WIPF1 / RFU, LARP1B / Fold change vs veh, LARP1B / RFU, RASA1 / Fold change vs veh, RASA1 / RFU, RB1 / Fold change vs veh, RB1 / RFU, PPFIA1 / Fold change vs veh, PPFIA1 / RFU, MAT2A / Fold change vs veh, MAT2A / RFU, CCT5 / Fold change vs veh, CCT5 / RFU, WDR92 / Fold change vs veh, WDR92 / RFU, CUX1 / Fold change vs veh, CUX1 / RFU, TTC7A / Fold change vs veh, TTC7A / RFU, TMEM135 / Fold change vs veh, TMEM135 / RFU, DEPTOR / Fold change vs veh, DEPTOR / RFU, CPM / Fold change vs veh, CPM / RFU, DNAJB6 / Fold change vs veh, DNAJB6 / RFU, CACNA2D3 / Fold change vs veh, CACNA2D3 / RFU, DTX4 / Fold change vs veh, DTX4 / RFU, TFCP2 / Fold change vs veh, TFCP2 / RFU, GMCL1 /// GMCL1P1 / Fold change vs veh, GMCL1 /// GMCL1P1 / RFU, AEBP2 / Fold change vs veh, AEBP2 / RFU, SNHG1 /// SNORD22 /// SNORD25 /// SNORD26 /// SNORD27 /// SNORD28 /// SNORD29 /// SNORD31 / Fold change vs veh, SNHG1 /// SNORD22 /// SNORD25 /// SNORD26 /// SNORD27 /// SNORD28 /// SNORD29 /// SNORD31 / Fold change (Aza/veh), C12orf56 (ProbeSet 11735607_a_at) / Fold change (ACY-1035/veh), C12orf56 (ProbeSet 11735607_a_at) / Fold change (Aza/veh), FGFR1OP (ProbeSet 11751329_s_at) / Fold change (ACY-1035/veh), FGFR1OP (ProbeSet 11751329_s_at) / Fold change (Aza/veh), VPS36 (ProbeSet 11739960_a_at) / Fold change (ACY-1035/veh), VPS36 (ProbeSet 11739960_a_at) / RFU SYPL1 (11715823_x_at) / Fold change /veh SYPL1 (11715823_x_at) / RFU IGFBP7 (11715501_s_at) / Fold change /veh IGFBP7 (11715501_s_at) / RFU REEP3 (11722064_at) / Fold change /veh REEP3 (11722064_at) / RFU IGLL1 (11728026_x_at) / Fold change /veh IGLL1 (11728026_x_at): dose or concentration left out as unconfirmed
Conditions: ProbeSet 11728676_at; LIST B

Compound: Nc1ncn([C@@H]2O[C@H](CO)[C@@H](O)[C@H]2O)c(=O)n1 [azacitidine]
- Fold change vs veh, MED14: 0.97
